One experiment concerns BY4743. Briefly: Growth of BY4743 in isobutanol (growth yield, OD600). The format is cell-based, Saccharomyces cerevisiae. As to conditions: 1 day (20 hr), 30° C.
Experiment [1] concerns Δslt2/Δslt2 (BY4743 having homozygous deletion of the SLT2 gene). Briefly: Growth of Δslt2 strain in isobutanol (growth yield, OD600). The experiment is classed as cell-based, Saccharomyces cerevisiae. As to conditions: 1 day (20 hr), 30° C.

In the case of `CC(C)CO` [isobutanol], the “OD (A600)” value with BY4743 (0.25 wt % isobutanol) is on record as greater than 1; with BY4743 (0.50 wt % isobutanol), greater than 1; with BY4743 (0.75 wt % isobutanol) it was 0.07; in the experiment with BY4743 (0.87 wt % isobutanol) it was 0.07; with BY4743 (1.00 wt % isobutanol), 0.04; with BY4743 (1.25 wt % isobutanol), 0.02. Moreover, the “OD (A600)” value was 0.04 with BY4743 (1.50 wt % isobutanol); 0.07 in experiment [1] (0.25 wt % isobutanol); 0.03 in experiment [1] (0.50 wt % isobutanol); 0.03 in experiment [1] (0.75 wt % isobutanol); 0.01 in experiment [1] (0.87 wt % isobutanol); 0.01 in experiment [1] (1.00 wt % isobutanol). In addition, the “OD (A600)” value in experiment [1] (1.25 wt % isobutanol) and in experiment [1] (1.50 wt % isobutanol) was 0.02 in each case.

For the origin of these results see patent US8795992B2, “Yeast with increased butanol tolerance involving cell wall integrity pathway” (Butamax Advanced Biofuels LLC, priority 2008, dated 2014).
